Here are results for twelve compounds from patent publication US12226418B2, “Dosing regimen for the treatment of PI3K related disorders” (Incyte Corporation, priority 2018, dated 2025).

The target in one experiment is JAK2 (Homo sapiens (Human), UniProt O60674). The experiment is described as follows: JAK2/JAK1 selectivity, Assay A at 1 mM ATP. Type of experiment: biochemical. To be noted: IC50 ratio.
The target in another experiment is JAK1 (Homo sapiens (Human), UniProt P23458). In words: JAK1 IC50, Assay A of U.S. Ser. No. 14/680,659 at 1 mM ATP. In kind it is biochemical.
Chain of JAK1 (P23458 837-1142): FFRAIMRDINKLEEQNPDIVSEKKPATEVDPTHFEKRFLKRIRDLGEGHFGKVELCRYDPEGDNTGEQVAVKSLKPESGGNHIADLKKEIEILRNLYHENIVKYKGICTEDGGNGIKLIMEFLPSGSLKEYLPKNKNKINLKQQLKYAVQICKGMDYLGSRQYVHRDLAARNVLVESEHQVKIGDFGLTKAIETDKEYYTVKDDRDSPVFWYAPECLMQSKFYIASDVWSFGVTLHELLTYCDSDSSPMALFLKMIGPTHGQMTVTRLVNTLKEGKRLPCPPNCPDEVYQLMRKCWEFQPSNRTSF

Chain of JAK2 (O60674 828-1132): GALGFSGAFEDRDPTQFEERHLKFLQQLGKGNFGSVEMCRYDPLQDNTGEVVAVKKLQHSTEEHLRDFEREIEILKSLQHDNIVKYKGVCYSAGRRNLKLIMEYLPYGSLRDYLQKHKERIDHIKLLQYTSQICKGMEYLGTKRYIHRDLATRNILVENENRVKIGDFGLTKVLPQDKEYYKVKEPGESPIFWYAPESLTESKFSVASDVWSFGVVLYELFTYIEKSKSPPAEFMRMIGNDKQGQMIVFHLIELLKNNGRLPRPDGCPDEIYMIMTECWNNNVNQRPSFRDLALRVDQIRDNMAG

As for `N#CC[C@]1(n2cc(-c3ncnc4[nH]ccc34)cn2)C[C@H](N2CCC(Oc3cc(CN4CC(O)C4)cc(C(F)(F)F)n3)CC2)C1` [Example 11], the “JAK2/ JAK1” value at JAK2 is above 10. This compound also came in with an IC50 against JAK1 below 10 nM.
For `N#CCC1(n2cc(-c3ncnc4[nH]ccc34)cn2)CN(C2CCN(C(=O)Nc3ccc(F)cc3C(F)(F)F)CC2)C1` [Example 8], in that order: above 10 and below 10 nM.
For `N#CCC1(n2cc(-c3ncnc4[nH]ccc34)cn2)CN(C2CCN(C(=O)c3ccnc(C(F)(F)F)n3)CC2)C1` [Example 9, [3-[4-(7H-pyrrolo[2,3-d]pyrimidin-4-yl)-1H-pyrazol-1-yl]-1-(1-{[2-(trifluoromethyl)pyrimidin-4-yl]carbonyl}piperidin-4-yl)azetidin-3-yl]acetonitrile], in that order: above 10 and below 10 nM.
For `C[C@@H](O)CNCc1cc(OC2CCN([C@H]3C[C@](CC#N)(n4cc(-c5ncnc6[nH]ccc56)cn4)C3)CC2)nc(C(F)(F)F)c1` [Example 24] the same measures were above 10 and below 10 nM.
On to `N#CC[C@]1(n2cc(-c3ncnc4[nH]ccc34)cn2)C[C@H](N2CCC(Oc3cc(CN4CCC[C@H]4CO)cc(C(F)(F)F)n3)CC2)C1` [Example 12], for which, on JAK2, the “JAK2/ JAK1” value is above 10. In addition, the IC50 at JAK1 is below 10 nM.
For `N#CCC(C1CCN(c2nc3cccnc3o2)C1)n1cc(-c2ncnc3[nH]ccc23)cn1` (stereo not drawn) [Example 4, 3-(1-[1,3]oxazolo[5,4-b]pyridin-2-ylpyrrolidin-3-yl)-3-[4-(7H-pyrrolo[2,3-d]pyrimidin-4-yl)-1H-pyrazol-1-yl]propanenitrile], the “JAK2/ JAK1” value at JAK2 is given as above 10. The same compound showed an IC50 against JAK1 below 10 nM.
For `C[C@@H](O)c1nc2cnc3ccsc3c2n1[C@H]1CC[C@H](CC#N)OC1` [Example 1, ((2R,5S)-5-{2-[(1R)-1-hydroxyethyl]-1H-imidazo[4,5-d]thieno[3,2-b]pyridin-1-yl}tetrahydro-2H-pyran-2-yl)acetonitrile] the same measures were above 10 and below 100 nM.
Regarding `N#CCC1(n2cc(-c3ncnc4[nH]ccc34)cn2)CN([C@H]2CC[C@@H](Oc3cc(CN4CC[C@H](O)C4)cc(C(F)(F)F)n3)CC2)C1` [Example 22, {1-(cis-4-{[4-{[(3S)-3-hydroxypyrrolidin-1-yl]methyl}-6-(trifluoromethyl)pyridin-2-yl]oxy}cyclohexyl)-3-[4-(7H-pyrrolo[2,3-d]pyrimidin-4-yl)-1H-pyrazol-1-yl]azetidin-3-yl}acetonitrile], the “JAK2/ JAK1” value at JAK2 was above 10. In addition, the IC50 against JAK1 is below 10 nM.
For the compound `CCNCc1cc(O[C@H]2CC[C@@H](N3CC(CC#N)(n4cc(-c5ncnc6[nH]ccc56)cn4)C3)CC2)nc(C(F)(F)F)c1` [Example 19, {1-(cis-4-{[4-[(ethylamino)methyl]-6-(trifluoromethyl)pyridin-2-yl]oxy}cyclohexyl)-3-[4-(7H-pyrrolo[2,3-d]pyrimidin-4-yl)-1H-pyrazol-1-yl]azetidin-3-yl}acetonitrile], the “JAK2/ JAK1” value at JAK2 is listed as above 10. The compound further returned an IC50 at JAK1 below 10 nM.
For `N#CCC(C1CCN(c2cccc(Cl)n2)C1)n1cc(-c2ncnc3[nH]ccc23)cn1` (stereo not drawn) [Example 3, 3-[1-(6-chloropyridin-2-yl)pyrrolidin-3-yl]-3-[4-(7H-pyrrolo[2,3-d]pyrimidin-4-yl)-1H-pyrazol-1-yl]propanenitrile], in that order: above 10 and below 10 nM.
`C[C@H](O)CNCc1cc(OC2CCN([C@H]3C[C@](CC#N)(n4cc(-c5ncnc6[nH]ccc56)cn4)C3)CC2)nc(C(F)(F)F)c1` [Example 25]: at JAK2, the “JAK2/ JAK1” value is listed as above 10. In addition, on JAK1, the IC50 was below 10 nM.
As to `N#CC[C@]1(n2cc(-c3ncnc4[nH]ccc34)cn2)C[C@H](N2CCN(C(=O)c3ccnc(C(F)(F)F)n3)CC2)C1` [Example 10], the “JAK2/ JAK1” value on JAK2 is on record as above 10. In addition, the IC50 on JAK1 was below 10 nM.
